According to PMC10134960, “Discovery of sulfonamide-tethered isatin derivatives as novel anticancer agents and VEGFR-2 inhibitors” (Journal of Enzyme Inhibition and Medicinal Chemistry, 2023):

Assays:
T47D cells [1] = assay: Cell cycle distribution analysis by flow cytometry; format: cell-based, human; settings: 10 μM, 24 h
Experimental: DMSO (control) or compounds 11b and 12b were applied to T47D cells, and flow cytometry was used to determine the DNA concentration. Figure 3 presents the findings. […]
μM of compounds 11b and 12b.
(§1) and fixed for 12 h. […] Then, the cells
Cell cycle analysis and apoptosis were
experiment has been carried out three times. […]

CA II = CA II (Homo sapiens, UniProt P00918); assay: biochemical
Experimental: Carbonic anhydrase I, II, and IX inhibition studies
The CO2 hydration actions catalyzed by carbonic anhydrase for targeted compounds herein
presented were measured using an Applied Photophysics stopped-flow instrument. The enzymes
are recombinant proteins that have been created in a lab. Following the initial rates of the CA-
catalyzed CO2 hydration reaction for a period of 10-100 s, phenol red (at a concentration of 0.2
mM) was used as an indicator, working at an absorbance maximum of 557 nm, with 20 mM
Hepes (pH 7.5) as a buffer, and 20 mM Na2SO4 (to maintain constant the ionic strength). The
CO2 concentrations used to determine the kinetic parameters and inhibition constants ranged
from 1.7 to 17 mM. At least six traces of the first 5-10% of the reaction were utilized to
determine the beginning velocity for each inhibitor. In the same way, the uncatalyzed rates were calculated and deducted from the total measured rates. Stock inhibitor solutions (0.1 mM) were
produced in distilled-deionized water, followed by dilutions with the assay buffer up to 0.01 nM.
Prior to the experiment, the inhibitor and enzyme solutions were preincubated together for 15
minutes at room temperature to allow for the development of the E-I complex. The inhibition
constants were calculated using non-linear least-squares methods using the ChengPrusoff
equation in PRISM 3. They reflect the average of at least three individual measurements 6, 7.

CA I = target: T1, CA I (Homo sapiens, UniProt P00915); assay: Carbonic anhydrase inhibition, stopped-flow CO2 hydration, CA I; format: biochemical; settings: stopped flow assay, mean of triplicate assays
T1 construct: made in house

CA IX [2] = target: T2, CA IX (Homo sapiens, UniProt Q16790); assay: Carbonic anhydrase inhibition, stopped-flow CO2 hydration, CA IX; format: biochemical; settings: stopped flow assay, mean of triplicate assays
T2 construct: made in house

T47D cells [3] = assay: NCI in vitro single-dose cellular antiproliferative assay, T47D cells; format: cell-based; settings: Homo sapiens; T47D breast cancer cells, single concentration of 10 μM; read-out: GI% (growth inhibition)
Experimental: (§2) The designed isatin derivatives 6a-i, 11a-c and 12a-c were examined for in vitro antitumor activity on NCI panel involving 58 distinct human tumour cell lines covering nine distinct types of cancer, at single concentration of 10 μM (supplementary file). […] Based on the findings, we concluded that none of compounds 6a, 6c, or 11a were able to increase cell inhibition by more than 20%. And by looking at the mean growth inhibition of the other compounds on each cancer, we discovered that, in addition to CNS cancer in compound 11c and leukaemia in compounds 12b and 12c, all the compounds had the strongest mean growth inhibition on breast cancer cell lines.
(§3) The supplementary data included descriptions of every experimental technique.
(§4) NCI-60 cancer cell lines screening
(§5) Primary anticancer assay was performed on a panel of sixty human tumour cell lines derived from nine neoplastic diseases, in accordance with the protocol of the Drug Evaluation Branch, National Cancer Institute, Bethesda, Maryland, USA. Tested compounds were added to the cell culture at a single concentration ([…]) and the cultures were incubated for 48 h. End point determinations were made with a protein binding dye, sulforhodamine B (SRB). Results for each tested compound were reported as the percent of growth of treated cells when compared to untreated control cells. The percentage growth was evaluated spectrophotometrically versus controls not treated with test agents 1. […]

VEGFR-2 = target: T3, VEGFR-2 (Homo sapiens, UniProt P35968); assay: VEGFR-2 inhibition assay (HTRF); format: biochemical; settings: for IC50: mean ± SD of triplicate, read-out: VEGFR-2 IC50 ± S.D.
T3 construct: purchased BioAssay Systems EKIN-400
Experimental: HTRF (homogeneous time-resolved fluorescence) assay method was used to conduct inhibitory action of all newly synthesized compounds against VEGFR-2. VEGFR-2 kinase (BioAssay Systems - Kinase Assay Kit, EKIN-400) and its substrate were incubated for 5 min in a buffer solution with newly synthesized compounds/Sorafnib to initiate the enzymatic reaction, then ATP was added to the reaction mixture. Hold under 30 min at room temperature. The reaction was stopped by adding

T47D cells [4] = assay: Annexin V-FITC/PI apoptosis assay; format: cell-based, human; settings: for Early apoptosis / Late apoptosis: 24 h, annexin V-FITC/PI; for increase of overall apoptosis in comparison to the control: versus untreated control
Text: To explore link between growth suppression activity of compounds 11b and 12b with initiation of apoptosis indicated by rising population of sub-G1 in treated T47D cell lines, the Annexin V-FITC/PI double labelling (AV/PI) apoptosis assay was done. The outcomes of the experiment are shown in Figure 4, showing that compounds 11b and 12b caused T47D cell lines to undergo early and late apoptosis. In fact, % of apoptotic cells amplified from 0.41% at early and 0.22% at late apoptosis in T47D cells that had not been treated to 31.0% of early and 12.07% of late apoptosis in T47D cell that had been treated with compound 11b and to 23.5% at early and 9.4% at late apoptosis of T47D cells that had been treated with compound 12b. According to these findings, compounds 11b and 12b increased the overall apoptosis of T47D cells by roughly 19 and 16.2 times, respectively, in comparison to the control.
The supplementary data included descriptions of every experimental technique. […]
μM of compounds 11b and 12b. […]
as §1
Cell cycle analysis and apoptosis were […]
experiment has been carried out three times.
Annexin V-FITC apoptosis assay […]
washed with cold phosphate-buffer saline (PBS). Cells were then stained with Annexin V-FITC […]
The samples were analyzed using the flow cytometer 8, 9.

T47D cells [5] = assay: In vitro cytotoxicity against T47D (sulforhodamine B colorimetric test); settings: Homo sapiens, 72 h, read-out: IC50 ± S.D. T47D
Experimental: Doxorubicin was set as reference in this assay.
The cytotoxic efficacy of the target compounds against T47D cells was determined, using the SRB colorimetric technique, as previously reported. Briefly, exponentially growing cells were trypsinized, counted and seeded at the appropriate densities (5000 cells/100 μL/ well) into 96-well microtiter plates.
Then, the cells were exposed to the tested compounds at the desired concentrations (0.01, 0.1, 1, 10, and 100 μM) or to 1% dimethyl sulfoxide (DMSO) for 72 h. At the end of the treatment period, the media were removed, and the cells were fixed with 10% trichloroacetic acid at 4 °C for 1 h. Following, the cells were washed with tap water four times and incubated with SRB 0.4% for 30 min. Excess dye was removed by washing repeatedly with 1% (vol/vol) acetic acid.
The protein-bound dye was dissolved in 10 mM Tris base solution for (optical density) OD determination at 510 nm using a Spectra Max plus Microplate Reader (Molecular Devices, CA).
Cell viability was expressed relative to the untreated control cells 2, 3.

[6] = test system: NCI panel of 58 human tumour cell lines; assay: NCI in vitro single-dose antiproliferative assay, panel of 58 tumour cell lines; format: cell-based; settings: single concentration of 10 μM, read-out: cell inhibition (mean % growth inhibition, GI)
Experimental: as §2, §3, §4, §5

CA IX [7] = target: CA IX; set-up: method as in PMID 30445264; settings: cancer-related CA IX isoform; cited from earlier work

T3 sequence (P35968 20-1356): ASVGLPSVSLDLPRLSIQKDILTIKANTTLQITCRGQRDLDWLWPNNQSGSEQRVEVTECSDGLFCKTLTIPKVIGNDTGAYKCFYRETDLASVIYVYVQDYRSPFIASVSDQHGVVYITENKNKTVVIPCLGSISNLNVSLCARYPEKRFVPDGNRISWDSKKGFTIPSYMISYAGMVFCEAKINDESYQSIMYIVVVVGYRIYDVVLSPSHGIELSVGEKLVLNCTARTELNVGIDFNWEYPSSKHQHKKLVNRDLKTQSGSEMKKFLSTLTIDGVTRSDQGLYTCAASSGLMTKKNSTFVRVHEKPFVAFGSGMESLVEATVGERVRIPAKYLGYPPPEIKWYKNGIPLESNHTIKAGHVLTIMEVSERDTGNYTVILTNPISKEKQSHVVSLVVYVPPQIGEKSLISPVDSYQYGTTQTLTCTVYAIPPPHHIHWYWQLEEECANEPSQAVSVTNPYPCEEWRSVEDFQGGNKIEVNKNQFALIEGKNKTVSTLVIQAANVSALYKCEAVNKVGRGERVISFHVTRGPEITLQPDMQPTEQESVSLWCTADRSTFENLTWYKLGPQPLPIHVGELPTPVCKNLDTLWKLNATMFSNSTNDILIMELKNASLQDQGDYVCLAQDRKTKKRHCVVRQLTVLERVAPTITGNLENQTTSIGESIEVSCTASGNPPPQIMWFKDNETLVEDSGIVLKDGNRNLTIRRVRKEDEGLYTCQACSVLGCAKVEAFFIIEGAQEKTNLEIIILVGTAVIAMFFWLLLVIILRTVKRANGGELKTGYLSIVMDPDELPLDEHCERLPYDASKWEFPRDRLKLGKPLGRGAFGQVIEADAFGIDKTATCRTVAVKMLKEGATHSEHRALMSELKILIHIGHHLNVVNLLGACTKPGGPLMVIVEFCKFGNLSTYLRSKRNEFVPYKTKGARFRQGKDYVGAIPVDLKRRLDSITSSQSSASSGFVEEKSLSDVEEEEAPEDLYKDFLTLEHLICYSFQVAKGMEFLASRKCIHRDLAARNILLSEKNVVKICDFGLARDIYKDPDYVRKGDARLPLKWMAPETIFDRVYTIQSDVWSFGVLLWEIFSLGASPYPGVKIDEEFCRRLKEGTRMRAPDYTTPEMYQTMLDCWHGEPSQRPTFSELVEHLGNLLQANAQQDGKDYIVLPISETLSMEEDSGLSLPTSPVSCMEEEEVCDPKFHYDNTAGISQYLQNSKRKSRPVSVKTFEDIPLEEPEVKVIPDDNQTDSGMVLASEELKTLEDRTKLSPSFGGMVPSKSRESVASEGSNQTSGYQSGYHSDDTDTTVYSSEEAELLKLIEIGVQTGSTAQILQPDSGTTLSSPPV
T1 sequence (P00915 whole entry): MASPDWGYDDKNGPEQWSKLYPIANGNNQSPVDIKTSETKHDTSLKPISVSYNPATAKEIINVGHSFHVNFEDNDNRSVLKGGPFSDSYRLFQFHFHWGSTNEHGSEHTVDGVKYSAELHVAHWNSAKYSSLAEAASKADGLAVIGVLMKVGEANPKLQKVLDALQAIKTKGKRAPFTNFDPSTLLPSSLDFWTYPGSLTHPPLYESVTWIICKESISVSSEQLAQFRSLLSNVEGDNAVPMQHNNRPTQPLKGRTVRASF

COc1ccc(/C(C)=N/N=C2/C(=O)N(C)c3ccc(Cl)cc32)cc1S(N)(=O)=O [Compound 11b]
%G0/G1 (T47D cells [1]): 68.42%
%Sub-G1 (T47D cells [1]): 45.88%
Ki (CA II): > 100 µM
Ki (CA I): > 100 µM
Ki (CA IX [2]): > 100 µM
inhibition at 10 µM (T47D cells [3]): 55%
inhibition at 10 µM (VEGFR-2): 72.7%
IC50 (VEGFR-2): 63.4 ± 0.72 nM
Early apoptosis (T47D cells [4]): 31.0%
Late apoptosis (T47D cells [4]): 12.07%
increase of overall apoptosis in comparison to the control (T47D cells [4]): roughly 19 times
melting point: 248 to 250 °C
IC50 (T47D cells [5]): 1.83 ± 0.08 µM

COc1ccc(/C(C)=N/N=C2/C(=O)Nc3ccc(F)cc32)cc1S(N)(=O)=O [Compound 6b]
melting point: 262 to 264 °C

COc1ccc(/C(C)=N/N=C2/C(=O)N(Cc3ccccc3)c3ccccc32)cc1S(N)(=O)=O [Compound 12a]
inhibition at 10 µM (T47D cells [3]): 57%
melting point: 235 to 237 °C
IC50 (T47D cells [5]): 11.6 ± 0.52 µM

COc1ccc(/C(C)=N/N=C2/C(=O)Nc3ccc(Cl)cc32)cc1S(N)(=O)=O [Compound 6d]
melting point: 268 to 270 °C

COc1ccc(/C(C)=N/N=C2/C(=O)Nc3c(Cl)cccc32)cc1S(N)(=O)=O [Compound 6e]
melting point: 278 to 280 °C

COc1ccc(/C(C)=N/N=C2/C(=O)Nc3ccccc32)cc1S(N)(=O)=O [Compound 6a]
inhibition at 10 µM [6]: ≤ 20%
melting point: 250 to 252 °C

COc1ccc2c(c1)/C(=N\N=C(/C)c1ccc(OC)c(S(N)(=O)=O)c1)C(=O)N2 [Compound 6h]
melting point: 264 to 266 °C

COc1ccc(/C(C)=N/N=C2/C(=O)Nc3cc(Br)ccc32)cc1S(N)(=O)=O [Compound 6g]
melting point: 276 to 278 °C

COc1ccc(/C(C)=N/N=C2/C(=O)N(C)c3ccccc32)cc1S(N)(=O)=O [Compound 11a]
inhibition at 10 µM [6]: ≤ 20%

COc1ccc(/C(C)=N/N=C2/C(=O)N(Cc3ccccc3)c3ccc(Cl)cc32)cc1S(N)(=O)=O [Compound 12b]
%S (T47D cells [1]): 41.05%
%Sub-G1 (T47D cells [1]): 39.15%
Ki (CA II): > 100 µM
Ki (CA I): > 100 µM
Ki (CA IX [2]): > 100 µM
inhibition at 10 µM (T47D cells [3]): 28%
inhibition at 10 µM (VEGFR-2): 97.2%
IC50 (VEGFR-2): 23.1 ± 0.41 nM
Early apoptosis (T47D cells [4]): 23.5%
Late apoptosis (T47D cells [4]): 9.4%
increase of overall apoptosis in comparison to the control (T47D cells [4]): ~16.2 times
melting point: 245 to 247 °C
IC50 (T47D cells [5]): 3.59 ± 0.16 µM

COc1ccc(/C(C)=N/N=C2/C(=O)Nc3ccc(Br)cc32)cc1S(N)(=O)=O [Compound 6f]
Ki (CA II): > 100 µM
Ki (CA I): > 100 µM
Ki (CA IX [2]): > 100 µM
inhibition at 10 µM (T47D cells [3]): 54%
inhibition at 10 µM (VEGFR-2): 86.8%
IC50 (VEGFR-2): 56.7 ± 0.72 nM
melting point: 274 to 276 °C
IC50 (T47D cells [5]): 5.45 ± 0.24 µM

COc1cccc2c1C(=O)c1c(O)c3c(c(O)c1C2=O)C[C@@](O)(C(=O)CO)C[C@@H]3O[C@H]1C[C@H](N)[C@H](O)[C@H](C)O1 [Doxorubicin, reference compound]
IC50 (T47D cells [5]): 2.26 ± 0.1 µM

COc1ccc(/C(C)=N/N=C2/C(=O)Nc3c(F)cccc32)cc1S(N)(=O)=O [Compound 6c]
inhibition at 10 µM [6]: ≤ 20%
melting point: 266 to 268 °C

CN1C(=O)/C(=N\c2ccc(NC(=O)Nc3ccc(S(N)(=O)=O)cc3)cc2)c2cc(Cl)ccc21 [compound II]
Ki (CA IX [7]): 5.2 nM

COc1ccc(/C(C)=N/N=C2/C(=O)Nc3ccc(OC(F)(F)F)cc32)cc1S(N)(=O)=O [Compound 6i]
inhibition at 10 µM (T47D cells [3]): 32%
melting point: 270 to 272 °C
IC50 (T47D cells [5]): 24.1 ± 1.08 µM

COc1ccc(/C(C)=N/N=C2/C(=O)N(C)c3ccc(Br)cc32)cc1S(N)(=O)=O [Compound 11c]
Ki (CA II): > 100 µM
Ki (CA I): > 100 µM
Ki (CA IX [2]): > 100 µM
inhibition at 10 µM (T47D cells [3]): 52%
inhibition at 10 µM (VEGFR-2): 92%
IC50 (VEGFR-2): 30.1 ± 0.31 nM
melting point: 263 to 265 °C
IC50 (T47D cells [5]): 10.4 ± 0.47 µM

COc1ccc(/C(C)=N/N=C2/C(=O)N(Cc3ccccc3)c3ccc(Br)cc32)cc1S(N)(=O)=O [Compound 12c]
inhibition at 10 µM (T47D cells [3]): 39%
melting point: 260 to 262 °C
IC50 (T47D cells [5]): 16.5 ± 0.74 µM
